Values of other authors, collected in patent US7208580B2, “Atomic structure of the hemalbumin complex and its use in designing therapeutic compounds” (New Century Pharmaceuticals, Inc., priority 2002, dated 2007).

Biological target: human albumin (Homo sapiens, UniProt P02768)
Sequence (P02768 25-609): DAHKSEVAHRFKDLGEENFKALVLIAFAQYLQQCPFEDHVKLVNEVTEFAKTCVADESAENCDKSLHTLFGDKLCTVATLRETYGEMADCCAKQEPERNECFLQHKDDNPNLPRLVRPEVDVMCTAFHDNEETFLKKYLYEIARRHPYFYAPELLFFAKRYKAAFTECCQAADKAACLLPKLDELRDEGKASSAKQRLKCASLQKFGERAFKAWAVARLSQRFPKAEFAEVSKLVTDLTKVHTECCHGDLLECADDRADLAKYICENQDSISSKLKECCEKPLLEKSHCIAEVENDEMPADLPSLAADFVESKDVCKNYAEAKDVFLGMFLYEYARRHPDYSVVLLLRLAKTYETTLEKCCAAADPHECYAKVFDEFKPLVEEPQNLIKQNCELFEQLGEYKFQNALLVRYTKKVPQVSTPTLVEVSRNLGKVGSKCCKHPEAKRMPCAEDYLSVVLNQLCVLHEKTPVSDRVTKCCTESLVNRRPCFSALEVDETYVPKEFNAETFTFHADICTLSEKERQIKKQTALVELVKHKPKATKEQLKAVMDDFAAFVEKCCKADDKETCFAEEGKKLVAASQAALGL

Compound	binding constants for protoporphyrin at the specialized high affinity site (albumins from primates, printed as '1×10^8 Ka')	KA, single high affinity site (hemin binding to human albumin, association constant from reference (9)) [M⁻¹]
C=CC1=C(C)c2cc3[nH]c(cc4nc(cc5[nH]c(cc1n2)c(C)c5CCC(=O)O)C(CCC(=O)O)=C4C)c(C)c3C=C [protoporphyrin, Fe^III-Protoporphyrin-IX]	~1×10^8	
Fe^III Protoporphyrin-IX (Cl) [Hemin]		1.1e+08
